Source: ChEMBL document CHEMBL1127934, “Synthesis of a series of brominated 1-phenyl-2-pyridylethenes as inhibitors of the protein-tyrosine kinase p56lck” (Bioorg Med Chem Lett, 1994)

Legend:
[1] = molecular target: Tyrosine-protein kinase Lck (Homo sapiens, UniProt P06239); assay: Inhibition of p56 Lck tyrosine kinase
[2] = Inhibition of p56 Lck tyrosine kinase

Chain of Tyrosine-protein kinase Lck (P06239 whole entry): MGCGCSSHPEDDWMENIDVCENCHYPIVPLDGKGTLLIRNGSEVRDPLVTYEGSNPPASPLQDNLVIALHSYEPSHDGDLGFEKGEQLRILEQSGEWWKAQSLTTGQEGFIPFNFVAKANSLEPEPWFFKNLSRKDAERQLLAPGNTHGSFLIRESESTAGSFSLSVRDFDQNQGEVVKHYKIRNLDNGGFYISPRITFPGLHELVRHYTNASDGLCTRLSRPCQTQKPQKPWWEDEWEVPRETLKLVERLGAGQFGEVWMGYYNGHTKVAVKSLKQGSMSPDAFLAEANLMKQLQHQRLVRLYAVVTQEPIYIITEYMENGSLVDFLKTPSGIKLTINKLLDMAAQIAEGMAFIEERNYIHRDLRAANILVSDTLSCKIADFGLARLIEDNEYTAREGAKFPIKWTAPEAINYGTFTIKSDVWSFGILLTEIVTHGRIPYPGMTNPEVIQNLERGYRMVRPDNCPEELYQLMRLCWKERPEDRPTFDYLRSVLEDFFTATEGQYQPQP

| SMILES | IC50 [1] [µM] | IC50 [2] [µM] |
| --- | --- | --- |
| N#C/C(=C\c1cc(Br)c(O)c(Br)c1)c1ccccn1 | 105 | – |
| N#CC(Cc1cc(Br)c(O)c(Br)c1)c1ccccn1 (stereo not drawn) | > 2090 | – |
| COc1cc(/C=C(\C#N)c2cccnc2)cc(Br)c1O | 242 | – |
| N#C/C(=C\c1cc(Br)c(O)c(Br)c1)c1cccnc1 | 168 | – |
| COc1cc(/C=C/c2ccccn2)cc(OC)c1OC | – | 2180 |
| COc1c(Br)cc(/C=C(\C#N)c2cccnc2)cc1Br | > 2530 | – |
| COc1c(Br)cc(/C=C(\C#N)c2ccccn2)cc1Br | > 2530 | – |
| COc1cc(/C=C/c2cccnc2)cc(OC)c1OC | – | 516 |
